# Data: patent US9211310B2, “Use of a Chinese medicine composition in preparing medicaments for treating secondary prevention of myocardial infarction” (TASLY PHARMACEUTICAL GROUP CO., LTD, priority 2010, dated 2015)
# Test system: patients after acute myocardial infarction
# Assay: TCM symptom score, total and single (chest pain, chest tightness, short breath, fatigue, palpitation, spontaneous perspiration, pale complexion), same clinical trial
# Assay type: in vivo, human
# Parameters: total score of TCM symptom, Mean / total score of TCM symptom, Min / total score of TCM symptom, Max / total score of TCM symptom, Md / change of total score of TCM symptom, Mean / change of total score of TCM symptom, Max / change of total score of TCM symptom, Md: scale not given here
# Settings: FAS
# Excerpt: 3508 patients who were in accordance with the diagnostic standards of AMI for 28 days to 2 years and differentiated as Qi deficiency and blood stagnation syndrome by TCM were studied. 0.5 g Chinese medicine composition prepared by the method of EXAMPLE 1 (Coded as QSYQ) was administrated half an hour after meal, 3 times per day.
# They included the overall survival time, angina pectoris score, TCM symptom score and life quality score, where angina pectoris score, TCM symptom score and life quality score were evaluated at randomization, in 1st, 3rd, 6th, 9th, 12th month after treatment and 18th month after follow-up.
# The analysis method referred to the angina pectoris score.
# [1] = 12 months after treatment-baseline
smiles,measurement,setting,value
"CC(=O)Oc1ccccc1C(=O)O [Control group, aspirine]","change of palpitation 3, number of patients",[1],8
same,"change of palpitation 3, percent of patients",[1],(0.47%)
same,"change of palpitation −1, percent of patients",[1],(6.55%)
same,"change of palpitation −2, number of patients",[1],4
same,"change of palpitation −2, percent of patients",[1],(0.23%)
same,"change of palpitation −3, number of patients",[1],0
same,"change of palpitation −3, percent of patients",[1],(0.00%)
same,"change of spontaneous perspiration 0, number of patients",[1],837
same,"change of spontaneous perspiration 0, percent of patients",[1],(48.98%)
same,"change of spontaneous perspiration 1, number of patients",[1],550
same,"change of spontaneous perspiration 1, percent of patients",[1],(32.18%)
same,"change of spontaneous perspiration 2, number of patients",[1],139
same,"change of spontaneous perspiration 2, percent of patients",[1],(8.13%)
same,"change of spontaneous perspiration 3, number of patients",[1],34
same,"change of spontaneous perspiration 3, percent of patients",[1],(1.99%)
same,"change of spontaneous perspiration −1, number of patients",[1],137
same,"change of spontaneous perspiration −1, percent of patients",[1],(8.02%)
same,"change of spontaneous perspiration −2, number of patients",[1],12
same,"change of spontaneous perspiration −2, percent of patients",[1],(0.70%)
same,"change of spontaneous perspiration −3, number of patients",[1],0
same,"change of spontaneous perspiration −3, percent of patients",[1],(0.00%)
same,"change of total score of TCM symptom, Max",[1],18.00
same,"change of total score of TCM symptom, Md",[1],−5.00
same,"change of total score of TCM symptom, Mean",[1],−5.39
same,"change of total score of TCM symptom, Min",[1],−33.00
same,"distribution of total score of TCM symptom: Medium, number of patients",Baseline,817
same,"distribution of total score of TCM symptom: Medium, percentage of patients",Baseline,(47.83%)
same,"distribution of total score of TCM symptom: Mild, number of patients",Baseline,828
same,"distribution of total score of TCM symptom: Mild, percentage of patients",Baseline,(48.48%)
same,"distribution of total score of TCM symptom: Severe, number of patients",Baseline,63
same,"distribution of total score of TCM symptom: Severe, percentage of patients",Baseline,(3.69%)
same,"fatigue score 0, % of patients",Baseline,(18.42%)
same,"fatigue score 0, number of patients",Baseline,315
same,"fatigue score 2, % of patients",Baseline,(60.94%)
same,"fatigue score 2, number of patients",Baseline,1042
same,"fatigue score 4, % of patients",Baseline,(16.90%)
same,"fatigue score 4, number of patients",Baseline,289
same,"fatigue score 6, % of patients",Baseline,(3.74%)
same,"fatigue score 6, number of patients",Baseline,64
same,"pale complexion score 0, number of patients",Baseline,572
same,"pale complexion score 0, percent of patients",Baseline,(33.47%)
same,"pale complexion score 1, number of patients",Baseline,741
same,"pale complexion score 1, percent of patients",Baseline,(43.36%)
same,"pale complexion score 2, number of patients",Baseline,325
same,"pale complexion score 2, percent of patients",Baseline,(19.02%)
same,"pale complexion score 3, number of patients",Baseline,71
same,"pale complexion score 3, percent of patients",Baseline,(4.15%)
same,"short breath score 0, % of patients",Baseline,(15.04%)
same,"short breath score 0, number of patients",Baseline,257
same,"short breath score 3, % of patients",Baseline,(51.84%)
same,"short breath score 3, number of patients",Baseline,886
same,"short breath score 6, % of patients",Baseline,(31.19%)
same,"short breath score 6, number of patients",Baseline,533
same,"short breath score 9, % of patients",Baseline,(1.93%)
same,"short breath score 9, number of patients",Baseline,33
same,"distribution of total score of TCM symptom: Medium, number of patients",Follow-up,218
same,"distribution of total score of TCM symptom: Medium, percentage of patients",Follow-up,(15.29%)
same,"distribution of total score of TCM symptom: Mild, number of patients",Follow-up,1205
same,"distribution of total score of TCM symptom: Mild, percentage of patients",Follow-up,(84.50%)
same,"distribution of total score of TCM symptom: Severe, number of patients",Follow-up,3
same,"distribution of total score of TCM symptom: Severe, percentage of patients",Follow-up,(0.21%)
same,"fatigue score 0, % of patients",Follow-up,(42.76%)
same,"fatigue score 0, number of patients",Follow-up,611
same,"fatigue score 2, % of patients",Follow-up,(53.11%)
same,"fatigue score 2, number of patients",Follow-up,759
same,"fatigue score 4, % of patients",Follow-up,(3.92%)
same,"fatigue score 4, number of patients",Follow-up,56
same,"fatigue score 6, % of patients",Follow-up,(0.21%)
same,"fatigue score 6, number of patients",Follow-up,3
same,"pale complexion score 0, number of patients",Follow-up,882
same,"pale complexion score 0, percent of patients",Follow-up,(61.72%)
same,"pale complexion score 1, number of patients",Follow-up,465
same,"pale complexion score 1, percent of patients",Follow-up,(32.54%)
same,"pale complexion score 2, number of patients",Follow-up,76
same,"pale complexion score 2, percent of patients",Follow-up,(5.32%)
same,"pale complexion score 3, number of patients",Follow-up,6
same,"pale complexion score 3, percent of patients",Follow-up,(0.42%)
same,"palpitation score 0, number of patients",Follow-up,631
same,"palpitation score 0, percent of patients",Follow-up,(44.16%)
same,"palpitation score 2, number of patients",Follow-up,697
same,"palpitation score 2, percent of patients",Follow-up,(48.78%)
same,"palpitation score 4, number of patients",Follow-up,95
same,"palpitation score 4, percent of patients",Follow-up,(6.65%)
same,"palpitation score 6, number of patients",Follow-up,6
same,"palpitation score 6, percent of patients",Follow-up,(0.42%)
same,"short breath score 0, % of patients",Follow-up,(35.62%)
same,"short breath score 0, number of patients",Follow-up,509
same,"short breath score 2, % of patients",Follow-up,(0.07%)
same,"short breath score 2, number of patients",Follow-up,1
same,"short breath score 3, % of patients",Follow-up,(54.51%)
same,"short breath score 3, number of patients",Follow-up,779
same,"short breath score 6, % of patients",Follow-up,(9.59%)
same,"short breath score 6, number of patients",Follow-up,137
same,"short breath score 9, % of patients",Follow-up,(0.21%)
same,"short breath score 9, number of patients",Follow-up,3
same,"spontaneous perspiration score 0, number of patients",Follow-up,767
same,"spontaneous perspiration score 0, percent of patients",Follow-up,(53.71%)
same,"spontaneous perspiration score 1, number of patients",Follow-up,595
same,"spontaneous perspiration score 1, percent of patients",Follow-up,(41.67%)
same,"spontaneous perspiration score 2, number of patients",Follow-up,62
same,"spontaneous perspiration score 2, percent of patients",Follow-up,(4.34%)
same,"spontaneous perspiration score 3, number of patients",Follow-up,4
same,"spontaneous perspiration score 3, percent of patients",Follow-up,(0.28%)
same,"total score of TCM symptom, Max",Follow-up,32.00
same,"total score of TCM symptom, Md",Follow-up,7.00
same,"total score of TCM symptom, Mean",Follow-up,7.71
same,"total score of TCM symptom, Min",Follow-up,0.00
same,"change of fatigue 0, % of patients",Follow-up-baseline,(42.67%)
same,"change of fatigue 0, number of patients",Follow-up-baseline,608
same,"change of fatigue 2, % of patients",Follow-up-baseline,(37.68%)
same,"change of fatigue 2, number of patients",Follow-up-baseline,537
same,"change of fatigue 4, % of patients",Follow-up-baseline,(11.09%)
same,"change of fatigue 4, number of patients",Follow-up-baseline,158
same,"change of fatigue 6, % of patients",Follow-up-baseline,(2.11%)
same,"change of fatigue 6, number of patients",Follow-up-baseline,30
same,"change of fatigue −2, % of patients",Follow-up-baseline,(6.11%)
same,"change of fatigue −2, number of patients",Follow-up-baseline,87
same,"change of fatigue −4, % of patients",Follow-up-baseline,(0.35%)
same,"change of fatigue −4, number of patients",Follow-up-baseline,5
same,"change of pale complexion 0, number of patients",Follow-up-baseline,950
same,"change of pale complexion 0, percent of patients",Follow-up-baseline,(66.95%)
same,"change of pale complexion 1, number of patients",Follow-up-baseline,430
same,"change of pale complexion 1, percent of patients",Follow-up-baseline,(30.30%)
